Target: T1, recombinant human TrkA (Homo sapiens, UniProt P04629)
T1 construct: 6HIS tagged cytoplasmic domain from Invitrogen, Catalog No. PV3144; purchased Invitrogen PV3144
Experiment: TrkA LanthaScreen Eu Kinase Binding Assay
Conditions: averaged IC50; TR-FRET binding assay, 60 min at 22° C.; read-out: TrkA Enzyme IC50
Description: TrkA binding activity was determined in a TrkA LanthaScreen™ Eu Kinase Binding Assay. 5 nM His-tagged recombinant human TrkA (6HIS tagged cytoplasmic domain from Invitrogen, Catalog No. PV3144) was incubated with 4 nM Alexa-Fluor® Tracer 236 (Invitrogen Cat. No. PV5592), 2 nM biotinylated anti-His (Invitrogen Cat. No. PV6090), and 2 nM europium-labeled Streptavidin (Invitrogen Cat. No. PV5899), in buffer (25 mM MOPS, pH 7.5, 5 mM MgCl2, 0.005% Triton X-100). Three fold serial dilutions of compounds of the invention in DMSO were added to a final percentage of 2% DMSO. After 60-minute incubation at 22° C., the reaction was measured using the EnVision multimode plate reader (PerkinElmer) via TR-FRET dual wavelength detection at […]. The percent of control was calculated using a ratiometric emission factor. The IC50 values were determined by fitting a four parameter model to the percent of control data.
Table A provides averaged IC50 values for compounds of the invention when tested in the assay of Example A, where A represents an averaged IC50 value <100 nM; and B represents an averaged IC50 value from 100 to 1,000 nM.

T1 sequence (P04629 440-796 limits assumed): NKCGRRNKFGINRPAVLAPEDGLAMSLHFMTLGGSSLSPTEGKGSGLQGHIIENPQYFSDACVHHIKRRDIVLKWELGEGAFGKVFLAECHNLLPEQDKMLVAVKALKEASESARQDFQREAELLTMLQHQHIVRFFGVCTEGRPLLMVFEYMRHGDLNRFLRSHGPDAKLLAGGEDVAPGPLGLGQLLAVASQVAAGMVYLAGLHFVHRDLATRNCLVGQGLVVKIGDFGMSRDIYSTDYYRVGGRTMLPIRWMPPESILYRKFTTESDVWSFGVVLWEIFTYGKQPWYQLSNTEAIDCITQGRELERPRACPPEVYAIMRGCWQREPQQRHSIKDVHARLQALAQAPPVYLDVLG

IC50 | SMILES
< 0.1 µM | CCOc1nn(-c2ccccc2)c(NC(=O)Nc2c(-c3ccc(F)cc3)nc3c(C(F)(F)F)cccn23)c1C [Example 33, 1-(3-ethoxy-4-methyl-1-phenyl-1H-pyrazol-5-yl)-3-(2-(4-fluorophenyl)-8-(trifluoromethyl)imidazo[1,2-a]pyridin-3-yl)urea]
< 0.1 µM | Cc1c(OC[C@@H](O)CO)nn(-c2ccccc2)c1NC(=O)Nc1c(-c2ccccc2)nc2c(C(F)(F)F)cccn12 [Example 29, (S)-1-(3-(2,3-dihydroxypropoxy)-4-methyl-1-phenyl-1H-pyrazol-5-yl)-3-(2-phenyl-8-(trifluoromethyl)imidazo[1,2-a]pyridin-3-yl)urea]
< 0.1 µM | Cc1cccn2c(NC(=O)Nc3c4c(nn3-c3ccccc3)CS(=O)(=O)C4)c(-c3ccccc3)nc12 [Example 17, 1-(5,5-dioxido-2-phenyl-4,6-dihydro-2H-thieno[3,4-c]pyrazol-3-yl)-3-(8-methyl-2-phenylimidazo[1,2-a]pyridin-3-yl)urea]
0.1 to 1 µM | CCOc1nn(-c2ccccc2)c(NC(=O)Nc2c(-c3cccc(F)c3)nc3c(C(F)(F)F)cccn23)c1C [Example 32, 1-(3-ethoxy-4-methyl-1-phenyl-1H-pyrazol-5-yl)-3-(2-(3-fluorophenyl)-8-(trifluoromethyl)imidazo[1,2-a]pyridin-3-yl)urea]
< 0.1 µM | O=C(Nc1c(-c2ccccc2)nn2ccccc12)Nc1c2c(nn1-c1ccccc1)CCC2 [Example 38, 1-(2-phenyl-2,4,5,6-tetrahydrocyclopenta[c]pyrazol-3-yl)-3-(2-phenylpyrazolopyridin-3-yl)urea]

The remaining lines, values behind:

SMILES | IC50
COc1nn(-c2ccccc2)c(NC(=O)Nc2c(-c3ccccc3)nc3c(C(F)(F)F)cccn23)c1C [Example 22, 1-(3-methoxy-4-methyl-1-phenyl-1H-pyrazol-5-yl)-3-(2-phenyl-8-(trifluoromethyl)imidazo[1,2-a]pyridin-3-yl)urea] | < 0.1 µM
COCc1nn(-c2ccccc2)c(NC(=O)Nc2c(-c3ccccc3)nc3c(C(F)(F)F)cccn23)c1C [Example 31, 1-(3-(methoxymethyl)-4-methyl-1-phenyl-1H-pyrazol-5-yl)-3-(2-phenyl-8-(trifluoromethyl)imidazo[1,2-a]pyridin-3-yl)urea] | 0.1 to 1 µM
Cc1c(-c2cnn(C)c2)nn(-c2ccccc2)c1NC(=O)Nc1c(-c2ccccc2)nc2c(C(F)(F)F)cccn12 [Example 30, 1-(1′,4-dimethyl-1-phenyl-1H,1′H-[3,4′-bipyrazol]-5-yl)-3-(2-phenyl-8-(trifluoromethyl)imidazo[1,2-a]pyridin-3-yl)urea] | < 0.1 µM
Cc1cccn2c(NC(=O)Nc3c4c(nn3-c3ccccc3)COC4)c(-c3ccccc3)nc12 [Example 14, 1-(8-methyl-2-phenylimidazo[1,2-a]pyridin-3-yl)-3-(2-phenyl-4,6-dihydro-2H-furo[3,4-c]pyrazol-3-yl)urea] | < 0.1 µM
Cn1cc(-c2nn(-c3ccccc3)c(NC(=O)Nc3c(-c4ccccc4)nc4c(C(F)(F)F)cccn34)c2Cl)cn1 [Example 34, 1-(4-chloro-1′-methyl-1-phenyl-1H,1′H-[3,4′-bipyrazol]-5-yl)-3-(2-phenyl-8-(trifluoromethyl)imidazo[1,2-a]pyridin-3-yl)urea] | < 0.1 µM
CCOc1nn(-c2ccccc2)c(NC(=O)Nc2c(-c3ccc(OC)cc3)nc3c(C)cccn23)c1C [Example 23, 1-(3-ethoxy-4-methyl-1-phenyl-1H-pyrazol-5-yl)-3-(2-(4-methoxyphenyl)-8-methylimidazo[1,2-a]pyridin-3-yl)urea] | 0.1 to 1 µM
CCOc1nn(-c2ccccc2)c(NC(=O)Nc2c(-c3ccc(OC)nc3)nc3c(C)cccn23)c1C [Example 16, 1-(3-ethoxy-4-methyl-1-phenyl-1H-pyrazol-5-yl)-3-(2-(6-methoxypyridin-3-yl)-8-methylimidazo[1,2-a]pyridin-3-yl)urea] | 0.1 to 1 µM
COc1nn(-c2ccccc2)c(NC(=O)Nc2c(-c3ccccc3)nc3c(C)cccn23)c1C [Example 21, 1-(3-methoxy-4-methyl-1-phenyl-1H-pyrazol-5-yl)-3-(8-methyl-2-phenylimidazo[1,2-a]pyridin-3-yl)urea] | < 0.1 µM
O=C(Nc1c2c(nn1-c1ccccc1)CCC2)Nc1c2ccccc2nn1-c1ccccc1 [Example 37, 1-(2-phenyl-2,4,5,6-tetrahydrocyclopenta[c]pyrazol-3-yl)-3-(2-phenyl-2H-indazol-3-yl)urea] | 0.1 to 1 µM
CCOc1nn(-c2ccccc2)c(NC(=O)Nc2c(-c3ccccc3)nc3c(C(F)(F)F)cccn23)c1C [Example 3, 1-(3-ethoxy-4-methyl-1-phenyl-1H-pyrazol-5-yl)-3-(2-phenyl-8-(trifluoromethyl)imidazo[1,2-a]pyridin-3-yl)urea] | < 0.1 µM
O=C(Nc1c2c(nn1-c1ccccc1)CCC2)Nc1c(-c2ccccc2)nc2c(C(F)(F)F)cccn12 [Example 13, 1-(2-phenyl-2,4,5,6-tetrahydrocyclopenta[c]pyrazol-3-yl)-3-(2-phenyl-8-(trifluoromethyl)imidazo[1,2-a]pyridin-3-yl)urea] | < 0.1 µM
